Results: patent US9387218B2, “Composition for the treatment of inflammatory and immune disorders” (EAGLEPHARMA PTY LTD, priority 2012, dated 2016)

Experiments:
[1] = tested on: osteoarthritis; conditions: literature study; cited from earlier work
[2] = tested on: seasonal allergic rhinitis; conditions: oral, 2600 mg to 5200 mg per day; cited from earlier work
[3] = tested on: murine macrophages; conditions: in vitro; cited from earlier work
[4] = tested on: Solar Keratosis; assay: Summary of treatments: Solar Keratosis; format: in vivo, human; parameters: key: The + values in the table represent a qualitative assessment of the treatment of symptoms in the patient groups tests; ++: The + values in the table represent a qualitative assessment of the treatment of symptoms in the patient groups tests; +++: The + values in the table represent a qualitative assessment of the treatment of symptoms in the patient groups tests; ++++: The + values in the table represent a qualitative assessment of the treatment of symptoms in the patient groups tests; +++++: 5+ indicating the greatest improvement in symptoms; conditions: patient groups
[5] = tested on: psoriasis; assay: Summary of treatments: Psoriasis; format: in vivo, human; parameters: key: The + values in the table represent a qualitative assessment of the treatment of symptoms in the patient groups tests; ++: The + values in the table represent a qualitative assessment of the treatment of symptoms in the patient groups tests; +++: The + values in the table represent a qualitative assessment of the treatment of symptoms in the patient groups tests; ++++: The + values in the table represent a qualitative assessment of the treatment of symptoms in the patient groups tests; +++++: 5+ indicating the greatest improvement in symptoms; conditions: patient groups
[6] = tested on: chondrocytes; conditions: in vitro; cited from earlier work
[7] = tested on: TNF-α production; conditions: in vitro; cited from earlier work

## CS(C)(=O)=O [MSM, Methylsulphonylmethane]
[1]
  effect in osteoarthritis: analgesic and anti-inflammatory effect
[2]
  symptoms associated with seasonal allergic rhinitis: may reduce symptoms
[3]
  effect in murine macrophages (release of pro-inflammatory cytokines): anti-inflammatory effect

## NC(=O)c1cccnc1 [Nicotinamide oral (NC), nicotinamide]
[4]
  qualitative assessment of the treatment of symptoms: Solar Keratosis: +
[5]
  qualitative assessment of the treatment of symptoms: Psoriasis: +

## N[C@H]1C(O)O[C@H](CO)[C@@H](O)[C@@H]1O (some centres unmarked) [glucosamine]
[1]
  effect in osteoarthritis: may improve the symptoms
[6]
  synthesis of proinflammatory mediators in chondrocytes: inhibits the synthesis of proinflammatory mediators

## NCC(=O)O [glycine]
[7]
  immunomodulatory action, possibly by inhibiting TNF-α production: immunomodulatory action
